No end group written: not given here.
Tests used:
RF/6A cells [1] = experiment: Cell viability with H-RN alone (MTS); type: cell-based, rhesus macaque; details: any concentration tested, vs culture medium group
Procedure: A cell proliferation assay was performed as described previously. A colorimetric MTS (3-(4,5-dimeth-ylthiazol-2-yl)-5-(3-carboxymethoxyphenol)-2-(4-sulphophenyl)-2H-tetrazolium) assay (CellTiter 96 AQ; Promega, Madison, WI) was used according to the manufacturer’s instructions. Briefly, cells were seeded onto a 96-well plate (4.8×10^3 cells/well). After 24 h, cells were serum-starved overnight, and then treated with 100 ng/ml VEGF and various doses of H-RN or H-FT (0, 1 μM, 10 μM, 100 μM, or 1 mM) in 100 μl of serum-free medium for an additional 24 h. In positive control group, 100 μl of serum-free medium contains 100 ng/ml VEGF and 0.25 or 2.5 mg/ml bevacizumab (Avastin®, Hoffmann-La Roche Ltd., Basel, Switzerland), and the negative control group contains 100 ng/ml VEGF and a scrambled peptide at concentrations of 1 μM, 10 μM, 100 μM, or 1 mM. […] The absorbance at 490 nm was recorded using a microplate reader (Bio-Rad, Model 680, Hercules, CA). […]
RF/6A cells were exposed for 24 h to VEGF (100 ng/ml), or to VEGF combined with various concentrations of bevacizumab, H-RN, or H-FT. […] At the highest dose of H-RN tested (1 mM), the mean absorbance value was very close to that of the control group (0.735 versus 0.673), though this inhibitory effect was not as strong as that of 2.5 mg/ml bevacizumab (0.735 versus 0.615). […]

RF/6A cells [2] = experiment: VEGF-stimulated cell proliferation assay (MTS); type: cell-based, rhesus macaque; details: 24 h
Procedure: A cell proliferation assay was performed as described previously. A colorimetric MTS (3-(4,5-dimeth-ylthiazol-2-yl)-5-(3-carboxymethoxyphenol)-2-(4-sulphophenyl)-2H-tetrazolium) assay (CellTiter 96 AQ; Promega, Madison, WI) was used according to the manufacturer’s instructions. Briefly, cells were seeded onto a 96-well plate (4.8×10^3 cells/well). After 24 h, cells were serum-starved overnight, and then treated with 100 ng/ml VEGF and various doses of H-RN or H-FT (0, 1 μM, 10 μM, 100 μM, or 1 mM) in 100 μl of serum-free medium for an additional 24 h. In positive control group, 100 μl of serum-free medium contains 100 ng/ml VEGF and 0.25 or 2.5 mg/ml bevacizumab (Avastin®, Hoffmann-La Roche Ltd., Basel, Switzerland), and the negative control group contains 100 ng/ml VEGF and a scrambled peptide at concentrations of 1 μM, 10 μM, 100 μM, or 1 mM. After completion of the treatment, 20 μl of the 3-(4,5-dimethylthiazol-2-yl)-5-(3-carboxymethoxyphenol)-2-(4-sulphophenyl)-2H-tetrazolium (MTS) reagent were pipetted into each well and incubated for 4 h. The absorbance at 490 nm was recorded using a microplate reader (Bio-Rad, Model 680, Hercules, CA). Each group was tested at least in triplicate, and the assays were repeated a minimum of three times.

RF/6A cells [3] = experiment: VEGF-driven cell migration assay (Transwell); type: cell-based, rhesus macaque; details: 100 ng/ml VEGF, 24 h, H-FT 1 nM to 1 µM, bevacizumab both concentrations
Procedure: A cell migration assay was performed as described previously, with modification as below. Briefly, RF/6A cells were starved overnight, trypsinized, and suspended at a final concentration of 5×10^5 cells/ml. Various concentrations of bevacizumab or peptides were preincubated with the cells for 30 min at 37 °C before seeding into the Transwell chambers (pretreated by culture medium, 10 mm diameter, 8.0 µm pore size; Corning Inc., New York, NY), the 5×10^4 cells were added to each upper chamber. VEGF (100 ng/ml) was placed into the lower chamber. The assembled cell-culture insert chamber was then incubated at 37 °C for 24 h. After removing the nonmigrating cells in the upper chambers with a cotton swab, migrated cells on the lower surface of the porous membrane were fixed, stained with Gram stain, and photographed under a light microscope (Olympus, Tokyo, Japan). Five random fields (×200) were chosen in each insert, and the cell number was quantified manually. Each experiment was repeated three times.

RF/6A cells [4] = experiment: Endothelial cell tube formation assay on Matrigel; type: cell-based, rhesus macaque; details: 100 ng/ml VEGF, 6 h, peptides 100 nM-1 mM, bevacizumab both concentrations
Procedure: A tube formation assay was performed as previously described. The 96 well culture plate were coated with Matrigel™ (BD Biosciences, Bedford, MA) according to the manufacturer’s instructions. RF/6A cells (2.5×10^4 in number) were preincubated with various concentrations of bevacizumab or peptides (100 nM–1 mM) before being seeded on coated plates in a serum-free medium containing VEGF 100 ng/ml, and then incubated at 37 °C for 6 h. Tube formation was observed using an inverted phase contrast microscope (Olympus, Tokyo, Japan). Images were captured with a digital camera (Olympus). The degree of tube formation was quantified by measuring the length of tubes in three randomly chosen fields (with magnification of ×100) from each well using the Image-Pro Plus Program (version 5.1; Media Cybernetics, Inc.). Each group was tested in triplicate. Each experiment was repeated three times.

Substance | Peptide remaining after 48 h [%] | Cell viability with peptide alone (in words) (RF/6A cells [1]) | Inhibition of VEGF-induced cell proliferation (in words) (RF/6A cells [2]; 100 ng/ml VEGF, peptides 1 μM-1 mM, bevacizumab 2.5 mg/ml) | Mean absorbance value (490 nm, MTS), VEGF-induced proliferation (RF/6A cells [2]; 2.5 mg/ml bevacizumab + 100 ng/ml VEGF, serum-free medium, control group 0.673) | Inhibition of VEGF-induced cell migration (in words) (RF/6A cells [3]) | Inhibition of VEGF-induced tube formation (in words) (RF/6A cells [4])
H-FTSNPEVRYEV-OH | > 90 |  |  |  |  | 
RNPRGEEGGPW [H-RN] | > 90 | cell viability was not affected |  |  |  | 
bevacizumab |  |  | strongly inhibited | 0.615 | effectively inhibited cell migration | strongly inhibited

Reference: PMC2956696, “A novel antiangiogenic peptide derived from hepatocyte growth factor inhibits neovascularization in vitro and in vivo” (Molecular Vision, 2010)
